In patent US10294227B2, “Compounds” (UNIVERSITY COURT OF THE UNIVERSITY OF EDINBURGH, priority 2015, dated 2019) one finds EC50 and IC50 data, which are given here for 21 compounds.

Read-outs that look alike come from different tables or passages of the source.

The test system of one experiment is MDA-MB-231 cells. Kind of experiment: Cell viability assay (PrestoBlue). As to conditions: Homo sapiens, MDA-MB-231, 120 h, read-out: Antiproliferative activity (EC50) MDA-MB-231; cell viability at day 5. Format: cell-based.
A further experiment deals with KIT (Homo sapiens (Human), UniProt P10721). The experiment in a line: Kinase screening assay (IC50). The conditions noted are these: read-out: Target inhibition (IC50) KIT; 10 μM ATP.
KIT, sequence (P10721 26-976): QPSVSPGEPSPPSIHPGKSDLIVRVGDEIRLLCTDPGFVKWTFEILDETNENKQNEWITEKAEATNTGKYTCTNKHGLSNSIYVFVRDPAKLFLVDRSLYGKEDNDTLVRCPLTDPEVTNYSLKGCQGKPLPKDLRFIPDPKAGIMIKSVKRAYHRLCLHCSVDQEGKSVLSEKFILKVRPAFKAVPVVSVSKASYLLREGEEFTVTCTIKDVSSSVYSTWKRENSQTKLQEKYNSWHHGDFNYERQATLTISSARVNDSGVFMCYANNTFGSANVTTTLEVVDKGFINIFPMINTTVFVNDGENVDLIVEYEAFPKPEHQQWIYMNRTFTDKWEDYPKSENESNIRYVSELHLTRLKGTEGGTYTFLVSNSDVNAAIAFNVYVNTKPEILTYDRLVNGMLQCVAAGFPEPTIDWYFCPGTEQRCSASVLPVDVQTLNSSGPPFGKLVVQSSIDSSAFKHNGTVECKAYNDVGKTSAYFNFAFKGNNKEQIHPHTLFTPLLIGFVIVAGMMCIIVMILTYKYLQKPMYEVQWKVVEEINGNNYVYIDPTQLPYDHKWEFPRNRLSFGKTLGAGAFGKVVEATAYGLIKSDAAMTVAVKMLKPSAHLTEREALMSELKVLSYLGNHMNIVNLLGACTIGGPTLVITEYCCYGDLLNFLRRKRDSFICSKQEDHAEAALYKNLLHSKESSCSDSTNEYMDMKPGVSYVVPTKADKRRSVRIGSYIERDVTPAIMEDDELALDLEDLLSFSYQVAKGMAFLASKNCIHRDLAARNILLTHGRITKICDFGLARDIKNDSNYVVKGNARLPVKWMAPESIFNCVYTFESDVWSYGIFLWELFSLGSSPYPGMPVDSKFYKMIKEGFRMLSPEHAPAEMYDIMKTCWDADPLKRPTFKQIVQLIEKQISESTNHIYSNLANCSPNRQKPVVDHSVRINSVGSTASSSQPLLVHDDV
For the next experiment, the target named is LCK (Homo sapiens (Human), UniProt P06239). Kind of experiment: Kinase screening assay (IC50).
LCK, sequence (P06239 whole entry): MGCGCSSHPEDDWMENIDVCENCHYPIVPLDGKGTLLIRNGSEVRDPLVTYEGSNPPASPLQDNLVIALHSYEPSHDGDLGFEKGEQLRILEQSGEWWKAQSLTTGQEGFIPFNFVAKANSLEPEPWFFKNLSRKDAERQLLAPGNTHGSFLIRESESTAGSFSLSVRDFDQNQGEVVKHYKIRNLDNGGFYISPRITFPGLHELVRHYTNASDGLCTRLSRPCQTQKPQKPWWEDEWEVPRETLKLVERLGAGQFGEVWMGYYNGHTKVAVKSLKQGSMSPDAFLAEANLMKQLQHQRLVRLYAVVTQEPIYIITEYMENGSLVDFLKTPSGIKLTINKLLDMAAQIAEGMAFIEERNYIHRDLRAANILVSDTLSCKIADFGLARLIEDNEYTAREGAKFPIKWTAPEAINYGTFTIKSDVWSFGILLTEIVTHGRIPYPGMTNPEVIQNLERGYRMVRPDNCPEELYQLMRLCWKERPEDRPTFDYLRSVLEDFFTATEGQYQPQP
Another experiment deals with RET (Homo sapiens (Human), UniProt P07949). The experiment in a line: Kinase screening assay (IC50). As to conditions: read-out: Target inhibition (IC50) RET; 10 μM ATP.
The target in another experiment is PDGFRa (Homo sapiens (Human), UniProt P16234). The experiment in a line: Kinase screening assay (IC50). Format: biochemical. The conditions noted are these: 10 μM ATP; read-out: Target inhibition (IC50) PDGFRa.
For the next experiment, the target named is HCK (Homo sapiens (Human), UniProt P08631). The experiment in a line: Kinase screening assay (IC50). The conditions noted are these: read-out: Target inhibition (IC50) HCK; 10 μM ATP.
HCK, sequence (P08631 whole entry): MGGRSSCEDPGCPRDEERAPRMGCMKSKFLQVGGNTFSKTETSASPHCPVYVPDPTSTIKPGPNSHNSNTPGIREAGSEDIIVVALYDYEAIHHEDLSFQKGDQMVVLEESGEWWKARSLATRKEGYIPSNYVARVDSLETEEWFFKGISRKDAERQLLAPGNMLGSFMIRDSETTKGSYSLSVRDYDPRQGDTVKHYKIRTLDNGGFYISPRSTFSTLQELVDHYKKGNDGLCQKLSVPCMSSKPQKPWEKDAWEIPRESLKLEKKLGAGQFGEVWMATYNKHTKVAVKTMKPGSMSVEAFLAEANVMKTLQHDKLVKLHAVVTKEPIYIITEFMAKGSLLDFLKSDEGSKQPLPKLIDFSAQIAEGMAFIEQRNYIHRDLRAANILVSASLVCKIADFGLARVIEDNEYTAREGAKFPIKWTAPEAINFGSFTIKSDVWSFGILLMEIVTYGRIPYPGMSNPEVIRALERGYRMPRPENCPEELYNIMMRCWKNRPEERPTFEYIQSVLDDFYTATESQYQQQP
In a further experiment the target is FRK/PTK5 (Homo sapiens (Human), UniProt P42685). Kind of experiment: Kinase screening assay (IC50). The conditions noted are these: read-out: Target inhibition (IC50) FRK/PTK5; 10 μM ATP.
FRK/PTK5, sequence (P42685 whole entry): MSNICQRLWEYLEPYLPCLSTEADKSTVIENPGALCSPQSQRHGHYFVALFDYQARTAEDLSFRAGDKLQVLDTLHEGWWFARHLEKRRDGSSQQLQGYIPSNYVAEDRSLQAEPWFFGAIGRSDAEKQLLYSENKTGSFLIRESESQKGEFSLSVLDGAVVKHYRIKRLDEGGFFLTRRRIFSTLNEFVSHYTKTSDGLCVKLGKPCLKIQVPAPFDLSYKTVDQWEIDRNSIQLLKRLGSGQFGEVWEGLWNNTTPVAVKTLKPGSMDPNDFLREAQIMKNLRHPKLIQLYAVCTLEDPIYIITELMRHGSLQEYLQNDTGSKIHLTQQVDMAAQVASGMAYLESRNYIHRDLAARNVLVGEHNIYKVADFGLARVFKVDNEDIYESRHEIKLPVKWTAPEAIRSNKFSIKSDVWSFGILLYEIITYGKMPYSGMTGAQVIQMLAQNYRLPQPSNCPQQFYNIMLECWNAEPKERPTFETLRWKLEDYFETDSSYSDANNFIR
The target of a further experiment is BLK (Homo sapiens (Human), UniProt P51451). The experiment in a line: Kinase screening assay (IC50). As to conditions: read-out: Target inhibition (IC50) BLK; 10 μM ATP.
BLK, sequence (P51451 whole entry): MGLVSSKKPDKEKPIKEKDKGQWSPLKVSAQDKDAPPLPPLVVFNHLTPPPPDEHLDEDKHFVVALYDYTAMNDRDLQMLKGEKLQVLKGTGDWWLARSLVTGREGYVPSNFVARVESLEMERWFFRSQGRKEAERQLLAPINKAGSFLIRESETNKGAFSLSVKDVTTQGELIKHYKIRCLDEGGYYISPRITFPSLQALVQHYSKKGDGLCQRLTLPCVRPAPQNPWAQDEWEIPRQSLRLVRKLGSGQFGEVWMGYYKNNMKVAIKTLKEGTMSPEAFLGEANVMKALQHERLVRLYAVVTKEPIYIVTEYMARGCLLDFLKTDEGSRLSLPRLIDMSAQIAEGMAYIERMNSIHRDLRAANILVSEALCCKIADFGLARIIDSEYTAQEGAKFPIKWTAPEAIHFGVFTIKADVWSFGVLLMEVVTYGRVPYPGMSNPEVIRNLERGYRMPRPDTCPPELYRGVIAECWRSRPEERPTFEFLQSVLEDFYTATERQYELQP
The target of another experiment is ABL (Homo sapiens (Human), UniProt P00519). The experiment in a line: Kinase screening assay (IC50). It counts as biochemical. As to conditions: 10 μM ATP; read-out: Target inhibition (IC50) ABL.
A further experiment has as its target mTOR (Homo sapiens (Human), UniProt P42345). Kind of experiment: Kinase screening assay (IC50). It counts as biochemical. The conditions noted are these: 10 μM ATP; read-out: Target inhibition (IC50) mTOR.
In the next experiment the target is LYN (Homo sapiens (Human), UniProt P07948). The experiment in a line: Kinase screening assay (IC50). The conditions noted are these: read-out: Target inhibition (IC50) LYN; 10 μM ATP.
LYN, sequence (P07948 whole entry): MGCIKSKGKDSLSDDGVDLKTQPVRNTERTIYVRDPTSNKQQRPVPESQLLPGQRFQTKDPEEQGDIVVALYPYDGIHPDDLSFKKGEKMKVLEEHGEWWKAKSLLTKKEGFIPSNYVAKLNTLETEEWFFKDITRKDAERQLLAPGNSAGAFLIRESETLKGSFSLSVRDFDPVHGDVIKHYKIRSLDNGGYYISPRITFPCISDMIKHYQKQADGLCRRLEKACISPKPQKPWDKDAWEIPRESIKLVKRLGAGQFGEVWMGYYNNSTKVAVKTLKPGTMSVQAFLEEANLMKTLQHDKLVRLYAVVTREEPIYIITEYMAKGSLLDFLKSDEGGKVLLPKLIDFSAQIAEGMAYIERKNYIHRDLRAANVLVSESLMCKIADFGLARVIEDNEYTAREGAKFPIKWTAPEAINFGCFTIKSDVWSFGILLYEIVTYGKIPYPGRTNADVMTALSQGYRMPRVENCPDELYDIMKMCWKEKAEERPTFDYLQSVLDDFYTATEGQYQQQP
The target of a further experiment is FGR (Homo sapiens (Human), UniProt P09769). The experiment in a line: Kinase screening assay (IC50).
FGR, sequence (P09769 whole entry): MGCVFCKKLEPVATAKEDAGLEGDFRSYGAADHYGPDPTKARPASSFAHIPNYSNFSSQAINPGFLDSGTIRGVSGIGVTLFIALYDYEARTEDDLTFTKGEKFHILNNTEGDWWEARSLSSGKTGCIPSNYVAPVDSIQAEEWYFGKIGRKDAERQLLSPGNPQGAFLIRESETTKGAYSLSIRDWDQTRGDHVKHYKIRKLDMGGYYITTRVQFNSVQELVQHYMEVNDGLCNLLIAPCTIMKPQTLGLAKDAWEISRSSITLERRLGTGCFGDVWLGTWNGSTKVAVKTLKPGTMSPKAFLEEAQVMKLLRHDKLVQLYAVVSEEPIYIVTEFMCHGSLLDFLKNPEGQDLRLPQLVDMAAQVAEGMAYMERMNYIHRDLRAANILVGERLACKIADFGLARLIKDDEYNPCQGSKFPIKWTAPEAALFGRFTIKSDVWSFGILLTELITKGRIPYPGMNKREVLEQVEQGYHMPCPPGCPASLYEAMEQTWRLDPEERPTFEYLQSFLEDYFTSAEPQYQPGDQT
A further experiment has as its system MCF7 cells. The experiment in a line: Cell viability assay (PrestoBlue). As to conditions: Homo sapiens, MCF7, 120 h; cell viability at day 5; read-out: Antiproliferative activity (EC50) MCF7. It counts as cell-based.
Experiment [1] has as its system SYF fibroblasts (deficient for Src, Yes, and Fyn). The experiment in a line: Cell viability assay (PrestoBlue). It counts as cell-based, murine. As to conditions: Mus musculus, Fibroblast, 120 h; cell viability at day 5; read-out: Antiproliferative activity (EC50) SYF (−/− Src).
Setting [2] is: read-out: Target inhibition (IC50) LCK, 10 μM ATP.

`CN(C)C1CCN(CCn2nc(-c3ccc(CC#N)cc3)c3c(N)ncnc32)CC1` [Compound 5-100, 2-[4-[4-amino-1-[2-[4-(dimethylamino)-1-piperidyl]ethyl]pyrazolo[3,4-d]pyrimidin-3-yl]phenyl]acetonitrile]: in the experiment with MDA-MB-231 cells, the EC50 was above 10 µM.
`COc1cc(-c2nn(CCN3CCCC(N(C)C)C3)c3ncnc(N)c23)ccc1NC(=O)OC(C)(C)C` (stereo not shown) [Compound 5-103, tert-butyl N-[4-[4-amino-1-[2-[3-(dimethylamino)-1-piperidyl]ethyl]pyrazolo[3,4-d]pyrimidin-3-yl]-2-methoxy-phenyl]carbamate]: the EC50 with MDA-MB-231 cells lay in the range of 1 to 10 µM.
Take `Cc1ccc(-c2nn(CCN3CCN(C)CC3)c3ncnc(N)c23)cc1` [Compound 103]: the IC50 at KIT, on LCK (setting [2]), at RET, on PDGFRa, at HCK and on FRK/PTK5 was above 1 µM throughout. Further, the IC50 on BLK, on ABL, at mTOR and at LYN was above 1 µM throughout.
For `Cc1ccc(-c2nn(CCN3CCN(CCN(C)C)CC3)c3ncnc(N)c23)cc1` [Compound 105, 1-[2-[4-(2-dimethylaminoethyl)piperazin-1-yl]ethyl]-3-(p-tolyl)pyrazolo[3,4-d]pyrimidin-4-amine], the IC50 on KIT, on LCK (setting [2]), on RET, at PDGFRa, on HCK and on FRK/PTK5 was above 1 µM each time. Besides, the IC50 on BLK, at ABL and on mTOR was above 1 µM throughout.
`Cc1ccc(-c2nn(CCN3CCC(CN(C)C)CC3)c3ncnc(N)c23)cc1` [Compound 112, 1-[2-[4-(dimethylaminomethyl)-1-piperidyl]ethyl]-3-(p-tolyl)pyrazolo[3,4-d]pyrimidin-4-amine]: the IC50 at KIT, at LCK (setting [2]), at RET, at PDGFRa, on HCK and at FRK/PTK5 was above 1 µM each time. For the same compound, the IC50 at BLK, on mTOR and at LYN was above 1 µM each time.
`Cc1ccc(-c2nn(CCN3CCC(CCN(C)C)CC3)c3ncnc(N)c23)cc1` [Compound 113, 1-[2-[4-(2-dimethylaminoethyl)-1-piperidyl]ethyl]-3-(p-tolyl)pyrazolo[3,4-d]pyrimidin-4-amine]: the IC50 on KIT was above 1 µM; on FGR, 0.1 to 1 µM; on LCK (setting [2]), above 1 µM; on RET, above 1 µM; on PDGFRa, above 1 µM; on HCK, above 1 µM. The IC50 on FRK/PTK5, at mTOR and on LYN was above 1 µM throughout.
Turning to `CN(C)CC1CCN(CCn2nc(-c3cnc4[nH]ccc4c3)c3c(N)ncnc32)CC1` [Compound 221, 1-[2-[4-(dimethylaminomethyl)-1-piperidyl]ethyl]-3-(1H-pyrrolo[2,3-b]pyridin-5-yl)pyrazolo[3,4-d]pyrimidin-4-amine], the IC50 at KIT, on PDGFRa and on mTOR was above 1 µM throughout.
Regarding `CN(C)CC1CCN(CCn2nc(-c3ccc4ncccc4c3)c3c(N)ncnc32)CC1` [Compound 223, 1-[2-[4-(dimethylaminomethyl)-1-piperidyl]ethyl]-3-(6-quinolyl)pyrazolo[3,4-d]pyrimidin-4-amine], in the experiment with MCF7 cells, the EC50 is above 10 µM.
Still for that read-out and setting: under `COc1ccc(-c2nn(CCN3CCC(CN(C)C)CC3)c3ncnc(N)c23)cc1OC` [Compound 224, 3-(3,4-dimethoxyphenyl)-1-[2-[4-(dimethylaminomethyl)-1-piperidyl]ethyl]pyrazolo[3,4-d]pyrimidin-4-amine] stands above 10 µM.
The same measure, in the same setting: under `CN(C)CC1CCN(CCn2nc(-c3cccc(O)c3)c3c(N)ncnc32)CC1` [Compound 225, 3-[4-amino-1-[2-[4-(dimethylaminomethyl)-1-piperidyl]ethyl]pyrazolo[3,4-d]pyrimidin-3-yl]phenol] stands above 10 µM; under `CN(C)CC1CCN(CCn2nc(-c3ccoc3)c3c(N)ncnc32)CC1` [Compound 226, 1-[2-[4-(dimethylaminomethyl)-1-piperidyl]ethyl]-3-(3-furyl)pyrazolo[3,4-d]pyrimidin-4-amine], above 10 µM; under `CN(C)CC1CCN(CCn2nc(C#Cc3ccccc3)c3c(N)ncnc32)CC1` [Compound 230, 1-[2-[4-(dimethylaminomethyl)-1-piperidyl]ethyl]-3-(2-phenylethynyl)pyrazolo[3,4-d]pyrimidin-4-amine], above 10 µM.
Same read-out and setting: under `CN(C)CC1CCN(CCn2nc(I)c3c(N)ncnc32)CC1` [Compound 232, 1-[2-[4 (dimethylaminomethyl)-1-piperidyl]ethyl]-3-iodo-pyrazolo[3,4-d]pyrimidin-4-amine] stands above 10 µM.
Regarding `CN(C)C1CCN(CCn2nc(-c3cnc4[nH]ccc4c3)c3c(N)ncnc32)CC1` [Compound 402, 1-[2-[4-(dimethylamino)-1-piperidyl]ethyl]-3-(1H-pyrrolo[2,3-b]pyridin-5-yl)pyrazolo[3,4-d]pyrimidin-4-amine], the IC50 on KIT, at PDGFRa, on HCK and at mTOR was above 1 µM in each case.
As for `COc1cc(-c2nn(CCN3CCC(N(C)C)CC3)c3ncnc(N)c23)ccc1NC(=O)CC(C)(C)C` [Compound 526, N-[4-[4-amino-1-[2-[4-(dimethylamino)-1-piperidyl]ethyl]pyrazolo[3,4-d]pyrimidin-3-yl]-2-methoxy-phenyl]-3,3-demethyl-butanamide], the IC50 on KIT was above 1 µM; at FGR it was 0.01 to 0.1 µM; on LCK, 0.01 to 0.1 µM; at RET, above 1 µM; at PDGFRa, above 1 µM; on FRK/PTK5, above 1 µM. For the same compound, the IC50 on ABL and at mTOR was above 1 µM each time.
For `COc1cc(-c2nn(CCN3CCC(N(C)C)CC3)c3ncnc(N)c23)ccc1NC(=O)Cc1ccccc1` [Compound 530, N-[4-[4-amino-1-[2-[4-(dimethylamino)-1-piperidyl]ethyl]pyrazolo[3,4-d]pyrimidin-3-yl]-2-methoxy-phenyl]-2-phenyl-acetamide], the EC50 (in [1]; in the experiment with MDA-MB-231 cells; in the experiment on MCF7 cells) was above 10 µM each time.
Regarding `COc1cc(-c2nn(CCN3CCC(N(C)C)CC3)c3ncnc(N)c23)ccc1NC(=O)NC(C)(C)C` [Compound 540, 1-[4-[4-amino-1-[2-[4-(dimethylamino)-1-piperidyl]ethyl]pyrazolo[3,4-d]pyrimidin-3-yl]-2-methoxy-phenyl]-3-tert-butyl-urea], the IC50 was above 1 µM on KIT; 0.01 to 0.1 µM at FGR; 0.01 to 0.1 µM against LCK; above 1 µM at RET; above 1 µM at PDGFRa; above 1 µM at FRK/PTK5. Also, the IC50 at mTOR was above 1 µM.
For the compound `CN(C)C1CCN(CCn2nc(-c3ccc(NC(=O)OC(C)(C)C)nc3)c3c(N)ncnc32)CC1` [Compound 549, tert-butyl N-[5-[4-amino-1-[2-[4-(dimethylamino)-1-piperidyl]ethyl]pyrazolo[3,4-d]pyrimidin-3-yl]-2-pyridyl]carbamate], the EC50 in the experiment on MDA-MB-231 cells and with MCF7 cells was above 10 µM each time.
For `COc1ccc(-c2nn(CCN3CCC(N(C)C)CC3)c3ncnc(N)c23)cc1NC(=O)OC(C)(C)C` [Compound 559, tert-butyl N-[5-[4-amino-1-[2-[4-(dimethylamino)-1-piperidyl]ethyl]pyrazolo[3,4-d]pyrimidin-3-yl]-2-methoxy-phenyl]carbamate], the EC50 in the experiment with MDA-MB-231 cells and in the experiment on MCF7 cells was above 10 µM throughout.
With `COc1cc(-c2nn(CCN3CCC(OC)CC3)c3ncnc(N)c23)ccc1NC(=O)OC(C)(C)C` [Compound 593, tert-butyl N-[4-[4-amino-1-[2-(4-methoxy-1-piperidyl)ethyl]pyrazolo[3,4-d]pyrimidin-3-yl]-2-methoxy-phenyl]carbamate], the EC50 with MDA-MB-231 cells is 1 to 10 µM.
As to `COc1cc(-c2ccn(CCN3CCC(N(C)C)CC3)n2)ccc1NC(=O)OC(C)(C)C` [Compound 597, tert-butyl N-[4-[1-[2-[4-(dimethylamino)-1-piperidyl]ethyl]pyrazol-3-yl]-2-methoxy-phenyl]carbamate], in the experiment on MDA-MB-231 cells, the EC50 is above 10 µM.
